Experimental data taken from ChEMBL document CHEMBL1137040, “Estrone formate: a novel type of irreversible inhibitor of human steroid sulfatase” (Bioorg Med Chem Lett, 2004).

Target: T1, Steryl-sulfatase (Homo sapiens, UniProt P08842)
T1 sequence (P08842 whole entry): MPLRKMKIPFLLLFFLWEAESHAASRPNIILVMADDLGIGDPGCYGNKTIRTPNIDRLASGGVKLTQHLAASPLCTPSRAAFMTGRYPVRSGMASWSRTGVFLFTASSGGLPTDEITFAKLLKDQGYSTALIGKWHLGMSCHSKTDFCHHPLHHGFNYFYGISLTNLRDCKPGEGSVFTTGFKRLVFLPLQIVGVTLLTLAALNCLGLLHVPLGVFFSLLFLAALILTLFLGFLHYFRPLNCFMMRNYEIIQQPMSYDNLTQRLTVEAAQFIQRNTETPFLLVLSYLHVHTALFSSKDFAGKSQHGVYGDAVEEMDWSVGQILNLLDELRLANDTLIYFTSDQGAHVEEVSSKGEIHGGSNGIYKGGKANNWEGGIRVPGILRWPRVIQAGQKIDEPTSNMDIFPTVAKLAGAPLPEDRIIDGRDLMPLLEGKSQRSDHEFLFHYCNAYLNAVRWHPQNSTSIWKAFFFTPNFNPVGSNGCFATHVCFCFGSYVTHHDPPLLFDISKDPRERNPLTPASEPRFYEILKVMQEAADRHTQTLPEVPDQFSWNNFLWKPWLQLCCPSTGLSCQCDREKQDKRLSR
Assay: Inhibition of purified human steroid sulfatase

With `O=COc1ccc2nc(C=C3C4CC5CC(C4)CC3C5)oc2c1` as the molecule, how does the IC50 read?
Its IC50 is 1.5 µM.

For `Oc1ccc2nc(C=C3C4CC5CC(C4)CC3C5)oc2c1`, which IC50 is on record?
Its IC50 is 0.26 µM.

`C[C@]12CC[C@H](OC=O)C=C1CCC1C2CC[C@]2(C)C(=O)CCC12` (stereo partly drawn) was tested. Which IC50 did it give?
The IC50 was over 10 µM.

With `C[C@]12CC[C@@H]3c4ccc(OC(=O)NCc5ccccc5)cc4CCC3[C@@H]1CCC2=O` (single isomer, unassigned) as the molecule, how does the IC50 read?
The IC50 was over 50 µM.

`CC(C)(C)OC(=O)NCC(=O)Oc1ccc2c(c1)CCC1[C@@H]2CC[C@]2(C)C(=O)CC[C@@H]12` (single isomer, unassigned) was tested. Which IC50 did it give?
The IC50 was over 50 µM.

With `C[C@]12CC[C@@H]3c4ccc(OC=O)cc4CCC3[C@@H]1CCC2=O` (single isomer, unassigned) as the molecule, how does the IC50 read?
The IC50 was 0.42 µM.

With `C[C@]12CC[C@@H]3c4ccc(OC(=O)CN)cc4CCC3[C@@H]1CCC2=O` (single isomer, unassigned) as the molecule, how does the IC50 read?
The IC50 was over 50 µM.

With `C[C@]12CC[C@@H]3c4ccc(OC#N)cc4CCC3[C@@H]1CCC2=O` (single isomer, unassigned) as the molecule, how does the IC50 read?
Its IC50 is over 50 µM.

With `CC(=O)Oc1ccc2c(c1)CCC1[C@@H]2CC[C@]2(C)C(=O)CC[C@@H]12` (single isomer, unassigned) as the molecule, how does the IC50 read?
The IC50 was over 50 µM.

How did the IC50 turn out when `C[C@]12CC[C@@H]3c4ccc(OC(=N)S)cc4CCC3[C@@H]1CCC2=O` (single isomer, unassigned) was run?
The IC50 was over 50 µM.

For `C[C@]12CC[C@@H]3c4ccc(OC(N)=O)cc4CCC3[C@@H]1CCC2=O` (single isomer, unassigned), which IC50 is on record?
Its IC50 is over 50 µM.

How did the IC50 turn out when `C[C@]12CC[C@@H]3c4ccc(OS(N)(=O)=O)cc4CCC3[C@@H]1CCC2=O` (single isomer, unassigned) [EMATE] was run?
The IC50 was 0.05 µM.

Which IC50 does the source give for `O=COc1ccccc1` [FORMIC ACID PHENYL ESTER] here?
The IC50 was over 30 µM.
